Assay results taken from ChEMBL document CHEMBL1201862, “PubChem BioAssay data set” (2004).
Active and inactive are the calls of the source.

Tests used:
[1] = system: HEK293; test: inhibition of NOD1-driven NF-kB reporter – cell-based, luminescence, uHTS, primary screen (AID 1578); type: functional; conditions: Homo sapiens
[2] = system: HEK293; test: cells; type: functional, cell-based; conditions: Homo sapiens
[3] = system: HEK293; test: cells; type: functional, cell-based; conditions: Homo sapiens; remark: listed apart in the source
[4] = system: HEK293; test: NOD2 signaling inhibitors in MDP-stimulated cells, cell-based, uHTS, luminescence (AID 2001); type: functional; conditions: Homo sapiens
[5] = THP-1 cell cytotoxicity, dose response, cytotoxicity control for non-replicating M. tuberculosis project (AID 489025); type: functional
[6] = molecular target: T1, Caspase-3 (Homo sapiens, UniProt P42574); type: functional;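 note: Dose-response selectivity test against caspase-3 for candidate inhibitors of sentrin-specific proteases (SENPs)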
T1 sequence (P42574 whole entry): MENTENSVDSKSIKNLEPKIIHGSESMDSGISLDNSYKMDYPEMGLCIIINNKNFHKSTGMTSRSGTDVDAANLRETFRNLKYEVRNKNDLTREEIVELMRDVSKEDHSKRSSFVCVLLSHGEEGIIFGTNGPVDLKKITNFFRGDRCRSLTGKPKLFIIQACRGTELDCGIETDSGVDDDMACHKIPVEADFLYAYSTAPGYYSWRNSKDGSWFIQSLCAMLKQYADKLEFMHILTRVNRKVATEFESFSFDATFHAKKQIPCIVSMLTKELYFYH

[7] = molecular target: T2, Sentrin-specific protease 7 (Homo sapiens, UniProt Q9BQF6); type: functional;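 note: Luminescence-based dose-response confirmation of ultra-high-throughput screening hits, measuring inhibition of SENP7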
T2 sequence (Q9BQF6 whole entry): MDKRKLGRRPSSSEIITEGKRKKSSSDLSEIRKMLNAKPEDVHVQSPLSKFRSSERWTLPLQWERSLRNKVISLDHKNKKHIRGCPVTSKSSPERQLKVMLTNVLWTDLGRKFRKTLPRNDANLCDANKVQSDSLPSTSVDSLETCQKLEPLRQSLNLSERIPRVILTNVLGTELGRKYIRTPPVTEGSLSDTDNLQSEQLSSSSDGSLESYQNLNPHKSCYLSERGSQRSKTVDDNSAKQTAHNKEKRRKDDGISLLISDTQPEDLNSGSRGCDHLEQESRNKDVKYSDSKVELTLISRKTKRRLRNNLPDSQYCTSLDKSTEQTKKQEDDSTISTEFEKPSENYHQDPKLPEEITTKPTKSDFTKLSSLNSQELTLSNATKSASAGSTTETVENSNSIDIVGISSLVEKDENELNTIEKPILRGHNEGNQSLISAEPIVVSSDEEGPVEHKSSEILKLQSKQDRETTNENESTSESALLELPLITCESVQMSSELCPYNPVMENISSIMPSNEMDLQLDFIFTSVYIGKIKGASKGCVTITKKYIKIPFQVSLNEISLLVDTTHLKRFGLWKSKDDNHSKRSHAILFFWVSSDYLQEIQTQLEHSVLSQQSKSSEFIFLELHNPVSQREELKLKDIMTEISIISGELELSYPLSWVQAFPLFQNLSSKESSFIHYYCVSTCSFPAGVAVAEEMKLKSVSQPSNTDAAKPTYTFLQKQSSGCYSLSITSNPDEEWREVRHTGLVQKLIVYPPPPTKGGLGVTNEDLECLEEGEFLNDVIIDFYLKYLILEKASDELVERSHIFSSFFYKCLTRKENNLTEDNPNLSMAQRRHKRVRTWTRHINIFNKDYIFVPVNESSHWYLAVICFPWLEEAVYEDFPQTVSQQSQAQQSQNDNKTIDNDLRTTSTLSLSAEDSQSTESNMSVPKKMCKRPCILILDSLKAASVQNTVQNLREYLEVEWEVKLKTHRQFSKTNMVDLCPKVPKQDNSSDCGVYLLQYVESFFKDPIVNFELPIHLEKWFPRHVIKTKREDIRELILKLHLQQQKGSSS

[8] = molecular target: T3, Sentrin-specific protease 6 (Homo sapiens, UniProt Q9GZR1); type: functional;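 note: Luminescence-based dose-response confirmatory assay of SENP6 inhibition, following up an ultra-high-throughput screen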
T3 sequence (Q9GZR1 whole entry): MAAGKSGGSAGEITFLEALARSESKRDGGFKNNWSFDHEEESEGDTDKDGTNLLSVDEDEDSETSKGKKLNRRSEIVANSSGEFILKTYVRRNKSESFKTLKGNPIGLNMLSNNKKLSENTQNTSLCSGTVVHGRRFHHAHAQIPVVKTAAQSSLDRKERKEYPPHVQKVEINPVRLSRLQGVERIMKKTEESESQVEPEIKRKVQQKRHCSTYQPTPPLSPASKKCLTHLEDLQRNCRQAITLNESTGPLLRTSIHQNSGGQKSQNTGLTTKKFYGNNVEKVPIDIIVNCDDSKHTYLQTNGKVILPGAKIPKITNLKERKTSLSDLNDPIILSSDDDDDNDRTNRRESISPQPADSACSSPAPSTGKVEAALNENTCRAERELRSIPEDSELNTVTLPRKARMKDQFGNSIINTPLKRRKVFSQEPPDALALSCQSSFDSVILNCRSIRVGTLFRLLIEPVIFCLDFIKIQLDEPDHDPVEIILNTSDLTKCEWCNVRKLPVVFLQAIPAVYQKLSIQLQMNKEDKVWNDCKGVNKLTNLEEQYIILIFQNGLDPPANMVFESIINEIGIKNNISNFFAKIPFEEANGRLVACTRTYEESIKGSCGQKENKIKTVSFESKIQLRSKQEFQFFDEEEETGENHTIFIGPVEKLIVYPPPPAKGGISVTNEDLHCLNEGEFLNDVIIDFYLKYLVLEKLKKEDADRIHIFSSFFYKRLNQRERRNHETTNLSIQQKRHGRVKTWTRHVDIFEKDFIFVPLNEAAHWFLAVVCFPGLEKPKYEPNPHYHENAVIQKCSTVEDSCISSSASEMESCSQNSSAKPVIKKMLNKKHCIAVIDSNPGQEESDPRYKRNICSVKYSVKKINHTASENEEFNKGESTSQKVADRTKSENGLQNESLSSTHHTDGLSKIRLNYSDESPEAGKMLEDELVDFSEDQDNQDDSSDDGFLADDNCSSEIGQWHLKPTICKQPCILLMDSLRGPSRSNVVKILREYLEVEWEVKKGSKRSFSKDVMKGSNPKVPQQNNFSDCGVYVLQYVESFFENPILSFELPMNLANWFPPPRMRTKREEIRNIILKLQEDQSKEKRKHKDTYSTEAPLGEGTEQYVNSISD

[9] = molecular target: T4, Sentrin-specific protease 8 (Homo sapiens, UniProt Q96LD8); type: functional;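 note: luminescence read-out of SENP8 inhibition, dose-response confirmation following an ultra-high-throughput screen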
T4 sequence (Q96LD8 whole entry): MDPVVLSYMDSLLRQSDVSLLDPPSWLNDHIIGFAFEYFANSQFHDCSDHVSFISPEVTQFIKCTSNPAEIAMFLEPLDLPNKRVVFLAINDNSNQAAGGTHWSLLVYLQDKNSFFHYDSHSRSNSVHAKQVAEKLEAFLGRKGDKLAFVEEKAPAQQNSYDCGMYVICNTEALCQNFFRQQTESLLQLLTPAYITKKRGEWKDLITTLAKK

[10] = cells; type: functional
[11] = molecular target: Nuclear receptor subfamily 5 group A member 2 (Homo sapiens, UniProt O00482); type: functional, cell-based;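 note: HEK293T cells transfected with LRH-1 and a StAR promoter luciferase reporter; potency for inhibitors that lower LRH-1 driven reporter light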
[12] = molecular target: Steroidogenic factor 1 (Homo sapiens, UniProt Q13285); test: Counterscreen for inverse agonists of the liver receptor homolog-1 (LRH-1; NR5A2): Luminescence-based cell-based high throughput dose response assay to identify inverse agonists of the Steroidogenic Factor 1 Nuclear Receptor (SF1; NR5A1).; type: functional
[13] = nonselective StAR promoter luciferase inhibitors – cell-based, luminescence, luciferase reporter, counter-screen for LRH-1 inverse agonist project, dose response (AID 651969); type: functional
[14] = molecular target: Nucleotide-binding oligomerization domain-containing protein 2 (Homo sapiens, UniProt Q9HC29); test: inhibition of NOD2-driven NF-kB reporter – cell-based, luminescence, uHTS, HEK293 (AID 1566); type: functional
[15] = system: HEK293; test: cells; type: functional, cell-based; conditions: Homo sapiens; remark: listed apart in the source
[16] = system: BJ; test: BJ-TERT fibroblast viability loss – cell-based, RAS-independent, luminescence, dose response (AID 1933); type: functional; conditions: Homo sapiens
[17] = system: BJ; test: cells; type: functional, cell-based; conditions: Homo sapiens
[18] = system: BJ; test: BJ-TERT-LT-ST fibroblast viability loss – cell-based, RAS-independent, luminescence, dose response (AID 1935); type: functional; conditions: Homo sapiens;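 note: BJ fibroblasts immortalized with TERT plus LT and ST oncogenes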
[19] = DRD fibroblast viability loss – cell-based, non-viral oncogenic, luminescence, dose response (AID 1934); type: functional; conditions: Homo sapiens
[20] = molecular target: T5, Replicative DNA helicase DnaB (Mycobacterium tuberculosis, UniProt P9WMR3); test: DnaB intein splicing inhibitors, dose response, biochemical, cell-free fluorescence (AID 449749); type: functional
T5 sequence (P9WMR3 whole entry): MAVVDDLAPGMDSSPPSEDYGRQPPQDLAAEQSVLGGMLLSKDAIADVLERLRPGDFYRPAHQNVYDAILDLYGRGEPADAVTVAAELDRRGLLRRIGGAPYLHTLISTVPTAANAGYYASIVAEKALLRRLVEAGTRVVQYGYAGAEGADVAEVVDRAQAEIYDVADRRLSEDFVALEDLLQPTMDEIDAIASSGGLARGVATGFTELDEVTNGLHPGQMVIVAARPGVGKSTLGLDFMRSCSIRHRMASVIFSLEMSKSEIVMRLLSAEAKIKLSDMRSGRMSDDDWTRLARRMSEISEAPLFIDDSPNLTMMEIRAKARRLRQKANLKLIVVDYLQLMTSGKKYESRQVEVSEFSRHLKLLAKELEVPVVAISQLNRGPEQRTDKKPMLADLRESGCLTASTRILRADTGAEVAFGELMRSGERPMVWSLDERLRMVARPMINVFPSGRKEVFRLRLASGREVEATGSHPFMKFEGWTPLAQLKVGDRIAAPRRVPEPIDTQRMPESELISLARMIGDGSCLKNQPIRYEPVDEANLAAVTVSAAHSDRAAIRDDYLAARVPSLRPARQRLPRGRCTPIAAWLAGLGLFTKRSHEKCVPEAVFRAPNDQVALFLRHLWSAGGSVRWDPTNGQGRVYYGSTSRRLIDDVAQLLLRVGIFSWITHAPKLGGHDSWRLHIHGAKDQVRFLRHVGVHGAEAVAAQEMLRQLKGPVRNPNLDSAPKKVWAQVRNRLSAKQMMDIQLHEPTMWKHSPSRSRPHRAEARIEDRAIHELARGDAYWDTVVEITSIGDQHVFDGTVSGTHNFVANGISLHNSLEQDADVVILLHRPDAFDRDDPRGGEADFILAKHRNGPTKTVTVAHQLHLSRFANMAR

[21] = molecular target: T6, Protein RecA (Mycobacterium tuberculosis, UniProt P9WHJ3); test: Fluorescence Cell-Free Homogeneous Dose Retest to Identify Inhibitors of RecA-Intein Splicing Activity. [Related pubchem assays (depositor defined):AID2097, AID2223, AID489010, AID492950]; type: functional
T6 sequence (P9WHJ3 whole entry): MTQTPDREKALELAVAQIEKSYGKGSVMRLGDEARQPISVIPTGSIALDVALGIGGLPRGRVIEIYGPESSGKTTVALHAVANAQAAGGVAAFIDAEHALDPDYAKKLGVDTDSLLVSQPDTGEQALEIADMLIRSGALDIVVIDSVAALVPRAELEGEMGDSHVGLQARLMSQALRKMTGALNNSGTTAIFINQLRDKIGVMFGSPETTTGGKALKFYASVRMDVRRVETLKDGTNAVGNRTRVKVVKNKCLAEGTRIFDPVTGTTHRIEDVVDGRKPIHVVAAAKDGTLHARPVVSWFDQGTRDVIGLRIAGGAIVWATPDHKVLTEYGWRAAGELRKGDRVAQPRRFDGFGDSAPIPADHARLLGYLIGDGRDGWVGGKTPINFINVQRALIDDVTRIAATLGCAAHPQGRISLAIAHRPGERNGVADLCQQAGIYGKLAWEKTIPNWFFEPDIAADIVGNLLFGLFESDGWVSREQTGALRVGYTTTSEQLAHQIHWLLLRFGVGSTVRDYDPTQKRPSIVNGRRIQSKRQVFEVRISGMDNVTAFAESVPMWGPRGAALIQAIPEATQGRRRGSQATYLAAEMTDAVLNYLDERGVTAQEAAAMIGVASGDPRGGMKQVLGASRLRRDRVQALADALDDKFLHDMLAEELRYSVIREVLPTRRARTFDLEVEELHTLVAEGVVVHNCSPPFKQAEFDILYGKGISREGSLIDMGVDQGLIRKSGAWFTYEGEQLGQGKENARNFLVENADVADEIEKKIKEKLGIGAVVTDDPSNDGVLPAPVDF

Nucleotide-binding oligomerization domain-containing protein 2, sequence (Q9HC29 whole entry, the tested form may be a part): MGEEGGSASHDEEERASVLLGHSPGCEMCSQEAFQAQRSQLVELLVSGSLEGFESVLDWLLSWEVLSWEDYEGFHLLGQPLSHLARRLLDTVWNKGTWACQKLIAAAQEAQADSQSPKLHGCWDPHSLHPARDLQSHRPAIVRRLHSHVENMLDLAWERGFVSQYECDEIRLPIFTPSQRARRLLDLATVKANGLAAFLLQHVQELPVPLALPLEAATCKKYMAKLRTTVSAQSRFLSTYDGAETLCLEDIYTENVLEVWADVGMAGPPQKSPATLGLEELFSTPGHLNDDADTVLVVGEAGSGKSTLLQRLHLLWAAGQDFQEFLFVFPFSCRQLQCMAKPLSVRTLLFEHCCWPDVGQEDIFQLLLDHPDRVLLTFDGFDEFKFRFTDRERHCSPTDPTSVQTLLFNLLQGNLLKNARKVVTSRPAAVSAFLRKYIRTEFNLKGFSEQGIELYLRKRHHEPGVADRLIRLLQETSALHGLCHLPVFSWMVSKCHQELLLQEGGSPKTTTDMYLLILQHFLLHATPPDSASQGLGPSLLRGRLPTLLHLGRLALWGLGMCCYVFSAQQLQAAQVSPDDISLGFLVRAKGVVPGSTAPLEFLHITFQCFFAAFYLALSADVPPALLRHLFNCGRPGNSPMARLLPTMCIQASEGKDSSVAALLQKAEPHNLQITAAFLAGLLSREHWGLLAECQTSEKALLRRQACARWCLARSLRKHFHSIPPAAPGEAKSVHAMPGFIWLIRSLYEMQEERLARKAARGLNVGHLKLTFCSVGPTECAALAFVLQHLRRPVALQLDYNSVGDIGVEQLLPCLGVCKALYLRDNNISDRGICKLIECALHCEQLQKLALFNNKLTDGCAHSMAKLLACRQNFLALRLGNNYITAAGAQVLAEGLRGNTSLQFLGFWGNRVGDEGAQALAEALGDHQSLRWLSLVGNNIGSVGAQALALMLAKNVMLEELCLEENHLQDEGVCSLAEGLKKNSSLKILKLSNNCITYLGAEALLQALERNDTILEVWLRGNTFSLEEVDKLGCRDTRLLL
Steroidogenic factor 1, sequence (Q13285 whole entry): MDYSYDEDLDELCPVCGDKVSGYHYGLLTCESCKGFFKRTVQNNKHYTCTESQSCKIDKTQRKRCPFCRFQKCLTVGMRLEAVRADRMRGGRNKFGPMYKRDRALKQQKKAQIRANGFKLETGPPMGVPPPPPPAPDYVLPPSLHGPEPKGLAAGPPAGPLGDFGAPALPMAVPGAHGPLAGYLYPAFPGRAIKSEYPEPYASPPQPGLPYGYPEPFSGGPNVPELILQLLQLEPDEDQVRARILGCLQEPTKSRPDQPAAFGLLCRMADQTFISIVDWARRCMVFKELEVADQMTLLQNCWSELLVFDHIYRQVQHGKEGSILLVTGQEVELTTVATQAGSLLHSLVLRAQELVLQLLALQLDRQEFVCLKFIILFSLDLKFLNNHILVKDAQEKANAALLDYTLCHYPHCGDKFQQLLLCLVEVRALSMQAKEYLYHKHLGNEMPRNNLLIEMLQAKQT
Nuclear receptor subfamily 5 group A member 2, sequence (O00482 whole entry): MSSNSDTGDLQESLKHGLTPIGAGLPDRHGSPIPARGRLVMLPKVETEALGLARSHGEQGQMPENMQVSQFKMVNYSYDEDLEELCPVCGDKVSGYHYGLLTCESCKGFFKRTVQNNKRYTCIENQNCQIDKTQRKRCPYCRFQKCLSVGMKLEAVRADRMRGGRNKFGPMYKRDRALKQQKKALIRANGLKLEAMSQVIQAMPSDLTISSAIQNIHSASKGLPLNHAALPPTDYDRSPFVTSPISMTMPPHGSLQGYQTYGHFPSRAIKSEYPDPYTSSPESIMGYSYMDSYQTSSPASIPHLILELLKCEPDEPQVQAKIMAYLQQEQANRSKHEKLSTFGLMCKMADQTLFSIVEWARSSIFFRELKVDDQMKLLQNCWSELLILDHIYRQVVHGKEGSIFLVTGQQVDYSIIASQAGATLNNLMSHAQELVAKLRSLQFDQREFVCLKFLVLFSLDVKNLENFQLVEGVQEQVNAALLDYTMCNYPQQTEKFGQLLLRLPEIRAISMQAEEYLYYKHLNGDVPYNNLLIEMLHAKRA

Row | SMILES | EC50 [1] | IC50 [2] | IC50 [3] | IC50 [4] | EC50 [14] | IC50 [15] | also measured
1 | O=C(Nc1nc2c(Cl)cccc2s1)c1ccc([N+](=O)[O-])o1 | 5.52 µM (active) | 18.6 µM (active) | 7.38 µM (active) | 13.2 µM (inactive) | – | – | CC50 [5]: 39.3 µM (active); IC50 [6]: 61.8 µM (active); IC50 [7]: 17.2 µM (active); IC50 [8]: 20.3 µM (active); IC50 [9]: 32.9 µM (active); IC50 [10]: 10.4 µM (active); IC50 [11]: 0.148 µM (active); IC50 [12]: 0.443 µM (active); IC50 [13]: 35.9 µM (inactive)
2 | CCOC(=O)c1sc2ccccc2c1OC(=O)c1ccc(C)cc1 | 10.7 µM (active) | 9.53 µM (active) | > 20 µM (inactive) | 6.76 µM (active) | 2.22 µM (active) | > 20 µM (inactive) | –
3 | O=C(CCl)Nc1cc(-c2ccccc2)nn1-c1ccccc1 | 4.71 µM (active) | 4.63 µM (active) | 19.2 µM (active) | 7.21 µM (active) | > 20 µM (inactive) | > 20 µM (inactive) | EC50 [16]: 5.38 µM (inconclusive); EC50 [17]: 9.6 µM (active); EC50 [18]: 5.05 µM (active); EC50 [19]: 8.91 µM (active); AC50 [20]: > 380 µM (inactive); EC50 [21]: 5.55 µM (active)
